According to patent publication EP4635500A1, “THERAPEUTIC AGENT FOR BACTERIAL INFECTION” (Sumitomo Pharma Co., Ltd., priority 2022, dated 2024):
≈ marks a conversion by molar mass, not a printed value. Where two headings read alike, the source gives them in different places.

Tests used:
P. aeruginosa = experiment: MIC, broth microdilution, CDC/FDA Antibiotic Resistance Isolate Bank (Example 7, Tables 10, 15); type: cell-based; conditions: for MIC: Pseudomonas aeruginosa, read-out: MIC
A. baumannii = experiment: MIC, broth microdilution, CDC/FDA Antibiotic Resistance Isolate Bank (Example 7, Tables 9, 13, 14); type: cell-based, Acinetobacter baumannii; conditions: for MIC: read-out: MIC
53 CRE and CPE strains = experiment: MICrange, MIC50, MIC80, MIC90 for 53 bacterial isolates (Example 5, Table 5); type: cell-based; conditions: 53 bacterial isolates
[1] = 26 metallo-carbapenemase-producing P. aeruginosa strains, β-lactamase inhibitor µg/mL in parentheses
[2] = 96 strains of P. aeruginosa, β-lactamase inhibitor µg/mL in parentheses
[3] = MIC distribution, metallo-β-lactamase-producing A. baumannii, inhibitor µg/mL in parentheses

Question: What does the source list for `O=C(O)c1cn(C2CC2)c2cc(N3CCNCC3)c(F)cc2c1=O` [Ciprofloxacin, ciprofloxacin]?
Answer: MIC against 26 metallo-carbapenemase-producing strains MIC50 (P. aeruginosa; [1]): 32 µg(mL); MIC against 26 metallo-carbapenemase-producing strains MIC90 (P. aeruginosa; [1]): 64 µg(mL); MIC against 96 strains of P. aeruginosa MIC50 (P. aeruginosa; [2]): 16 µg(mL); MIC against 96 strains of P. aeruginosa MIC90 (P. aeruginosa; [2]): 64 µg(mL); MIC (P. aeruginosa; P. aeruginosa KUB No. 5602, AR Bank # 105): > 64 µg/mL; MIC (P. aeruginosa; P. aeruginosa KUB No. 5665, AR Bank # 232): 2 µg/mL (≈ 6.04 µM); MIC (P. aeruginosa; P. aeruginosa KUB No. 5666, AR Bank # 23): 0.5 µg/mL (≈ 1.51 µM); MIC (P. aeruginosa; P. aeruginosa KUB No. 5667, AR Bank # 234): 2 µg/mL (≈ 6.04 µM); MIC (P. aeruginosa; P. aeruginosa KUB No. 5669, AR Bank # 236): 4 µg/mL (≈ 12.1 µM); MIC (P. aeruginosa; P. aeruginosa KUB No. 5675, AR Bank # 242): 8 µg/mL (≈ 24.1 µM); MIC (P. aeruginosa; P. aeruginosa KUB No. 5676, AR Bank # 243): 8 µg/mL (≈ 24.1 µM); MIC (P. aeruginosa; P. aeruginosa KUB No. 5705, AR Bank # 272): 8 µg/mL (≈ 24.1 µM); MIC (P. aeruginosa; P. aeruginosa KUB No. 5747, AR Bank # 351): 2 µg/mL (≈ 6.04 µM); MIC (P. aeruginosa; P. aeruginosa KUB No. 5748, AR Bank # 352): 4 µg/mL (≈ 12.1 µM); MIC (P. aeruginosa; P. aeruginosa KUB No. 5750, AR Bank # 354): 4 µg/mL (≈ 12.1 µM); MIC (P. aeruginosa; P. aeruginosa KUB No. 5754, AR Bank # 358): 4 µg/mL (≈ 12.1 µM); MIC (P. aeruginosa; P. aeruginosa KUB No. 5755, AR Bank # 359): 4 µg/mL (≈ 12.1 µM); MIC (P. aeruginosa; P. aeruginosa KUB No. 5798, AR Bank # 455): 1 µg/mL (≈ 3.02 µM); MIC (P. aeruginosa; P. aeruginosa KUB No. 5801, AR Bank # 458): 0.5 µg/mL (≈ 1.51 µM); MIC (P. aeruginosa; P. aeruginosa KUB No. 5802, AR Bank # 459): 4 µg/mL (≈ 12.1 µM); MIC (P. aeruginosa; P. aeruginosa KUB No. 5804, AR Bank # 862): 1 µg/mL (≈ 3.02 µM); MIC (P. aeruginosa; P. aeruginosa KUB No. 5806, AR Bank # 864): > 64 µg/mL; MIC (P. aeruginosa; P. aeruginosa KUB No. 5813, AR Bank # 508): 0.002 µg/mL (≈ 0.00604 µM); MIC (P. aeruginosa; P. aeruginosa KUB No. 5815, AR Bank # 510): 0.004 µg/mL (≈ 0.0121 µM); MIC (P. aeruginosa; P. aeruginosa KUB No. 5817, AR Bank # 512): 0.001 µg/mL (≈ 0.00302 µM); MIC (P. aeruginosa; P. aeruginosa KUB No. 5820, AR Bank # 515): > 0.064 µg/mL; MIC (A. baumannii; Acinetobacter baumannii, A. baumannii KUB No. 5567, AR Bank #70, OXA-58, OXA-100): 8 µg/mL (≈ 24.1 µM); MIC (A. baumannii; Acinetobacter baumannii, A. baumannii KUB No. 5575, AR Bank #78, OXA-71): > 64 µg/mL; MIC (A. baumannii; Acinetobacter baumannii, A. baumannii KUB No. 5598, AR Bank #101, OXA-24, OXA-65): > 64 µg/mL; MIC (A. baumannii; Acinetobacter baumannii, A. baumannii KUB No. 5706, AR Bank #273, OXA-23, OXA-66): > 64 µg/mL; MIC (A. baumannii; Acinetobacter baumannii, A. baumannii KUB No. 5707, AR Bank #274, OXA-66, OXA-72): > 64 µg/mL; MIC (A. baumannii; Acinetobacter baumannii, A. baumannii KUB No. 5710, AR Bank #277, OXA-24, OXA-65): > 64 µg/mL; MIC (A. baumannii; Acinetobacter baumannii, A. baumannii KUB No. 5713, AR Bank #280, OXA-66): > 64 µg/mL; MIC (A. baumannii; Acinetobacter baumannii, A. baumannii KUB No. 5718, AR Bank #285, OXA-24, OXA-65): > 64 µg/mL; MIC (A. baumannii; Acinetobacter baumannii, KUB No. 5721, AR Bank #288): > 64 µg/mL; MIC (A. baumannii; Acinetobacter baumannii, KUB No. 5722, AR Bank #259): > 64 µg/mL; MIC (A. baumannii; Acinetobacter baumannii, KUB No. 5724, AR Bank #291): > 64 µg/mL; MIC (A. baumannii; Acinetobacter baumannii, KUB No. 5727, AR Bank #294): > 64 µg/mL; MIC (A. baumannii; Acinetobacter baumannii, KUB No. 5728, AR Bank #295): > 64 µg/mL; MIC (A. baumannii; Acinetobacter baumannii, KUB No. 5729, AR Bank #296): > 64 µg/mL; MIC (A. baumannii; Acinetobacter baumannii, KUB No. 5730, AR Bank #297): > 64 µg/mL; MIC (A. baumannii; Acinetobacter baumannii, KUB No. 5732, AR Bank #299): > 64 µg/mL; MIC (A. baumannii; Acinetobacter baumannii, KUB No. 5733, AR Bank #300): > 64 µg/mL; MIC (A. baumannii; Acinetobacter baumannii, KUB No. 5734, AR Bank #301): > 64 µg/mL; MIC (A. baumannii; Acinetobacter baumannii, KUB No. 5735, AR Bank #302): > 64 µg/mL; MIC (A. baumannii; Acinetobacter baumannii, KUB No. 5737, AR Bank #304): > 64 µg/mL; MIC (A. baumannii; Acinetobacter baumannii, KUB No. 5738, AR Bank #305): > 64 µg/mL; MIC (A. baumannii; Acinetobacter baumannii, KUB No. 5739, AR Bank #306): > 64 µg/mL; MIC (A. baumannii; Acinetobacter baumannii, KUB No. 5741, AR Bank #308): > 64 µg/mL; MIC (A. baumannii; Acinetobacter baumannii, KUB No. 5742, AR Bank #309): > 64 µg/mL; MIC (A. baumannii; Acinetobacter baumannii, KUB No. 5743, AR Bank #310): > 64 µg/mL; MIC (A. baumannii; Acinetobacter baumannii, KUB No. 5745, AR Bank #312): 8 µg/mL (≈ 24.1 µM); MIC80 (A. baumannii; Acinetobacter baumannii, 55 isolates of A. baumannii, read-out: MIC80): > 64 µg/mL; MIC90 (A. baumannii; Acinetobacter baumannii, 55 isolates of A. baumannii, read-out: MIC90): > 64 µg/mL; Number of isolates at MIC 16 µg/mL (A. baumannii; [3]): 1; Number of isolates at MIC 32 µg/mL (A. baumannii; [3]): 1; Number of isolates at MIC >32 µg/mL (A. baumannii; [3]): 1; Number of isolates at MIC >64 µg/mL (A. baumannii; [3]): 1

Question: How did the MIC50 (53 CRE and CPE strains; read-out: MIC50) turn out when `CC(C)(O/N=C(\C(=O)N[C@@H]1C(=O)N2C(C(=O)[O-])=C(C[n+]3ccccc3)CS[C@H]12)c1csc(N)n1)C(=O)O` [CAZ, ceftazidime] was run?
Answer: > 32 µg/mL

Question: And the MIC80 (53 CRE and CPE strains; read-out: MIC80)?
Answer: > 32 µg/mL

Question: What about the MIC90 (53 CRE and CPE strains; read-out: MIC90) of the same compound?
Answer: > 32 µg/mL
